# Reference: patent US7384733B1, “Interface patch clamping” (Xention Discovery Limited, priority 1998, dated 2008)
# Biological target: potassium currents (Kv1.1) in MK1 cell (Mus musculus, UniProt P16388)
# Details: TEA 5 mM in extracellular solution in the dish, then washing; FIG. 21
# From the text: The solution may be exchanged readily by perfusion of the dish and this allows multiple drug additions and dose response curves to be obtained while recording from the one cell.
# The holding potential was −60 mV and (a) and (b) show outward potassium currents (Kv1.1) in response to a voltage step to +30 mV.
# potassium currents (Kv1.1) in MK1 cell, sequence (P16388 whole entry): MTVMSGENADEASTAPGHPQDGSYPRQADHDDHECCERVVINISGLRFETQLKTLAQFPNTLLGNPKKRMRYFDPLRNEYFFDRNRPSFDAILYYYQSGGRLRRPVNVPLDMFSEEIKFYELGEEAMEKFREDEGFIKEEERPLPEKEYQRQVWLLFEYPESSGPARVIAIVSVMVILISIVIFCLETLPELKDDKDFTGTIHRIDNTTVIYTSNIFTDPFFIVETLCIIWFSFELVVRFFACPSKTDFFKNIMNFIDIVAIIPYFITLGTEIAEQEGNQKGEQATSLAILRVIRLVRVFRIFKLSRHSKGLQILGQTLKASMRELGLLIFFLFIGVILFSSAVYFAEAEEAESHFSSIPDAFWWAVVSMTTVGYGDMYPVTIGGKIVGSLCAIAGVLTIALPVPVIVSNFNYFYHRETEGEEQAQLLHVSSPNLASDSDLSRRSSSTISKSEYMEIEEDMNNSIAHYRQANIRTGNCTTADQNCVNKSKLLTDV
structure (smiles),measurement,value
"CC[N+](CC)(CC)CC [TEA, tetraethylammonium]",effect on the potassium current recorded from MK1 cell in whole cell recording mode,blocking effect of TEA was reversed by washing
